Experimental data: US20160339089A1, “IMMUNOGENIC/THERAPEUTIC GLYCOCONJUGATE COMPOSITIONS AND USES THEREOF” (OBI PHARMA, INC., priority 2014, published 2016)

Legend:
Format in all cases: in vivo
[1] = test system: B cells and T cells (CD3T, CD4T, CD8T) in PBMC; assay: Analysis of immune effector cell subpopulations in PBMC of immunized rats by flow cytometry; details: Lewis rats, s.c. immunization day 0, 7, 14, 21 with saponin adjuvant
Protocol: (§1) Different samples of the glycoconjugates (Globo H-KLH) as prepared in Example 1 were stored at 4° C., and mixed with a saponin adjuvant under a laminar flow hood. The resultant vaccine compositions were placed on ice and transported to animal facility for subsequent immunization.
(§2) The rats were immunized on day 0, 7, 14, and 21. Peripheral blood mononuclear cells (PBMC) and plasma were collected on day 0, 3, 10, 17, 24, and 31. Spleen, lymph node, and peritoneal wash were harvested on day 31.
The peripheral blood mononuclear cells (PBMCs) were isolated from the animals and then various immune effector cell subpopulations in the PBMC were identified by flow cytometry using specific antibodies against different cell markers The PBMCs, isolated from the immunized rats on day 0, 3, 10, 17, 24, and 31, were stained with different fluorescence (FITC)-conjugated antibodies and placed on ice for 30 minutes.

[2] = test system: Globo H-specific IgG and IgM antibodies; assay: Globo H-specific antibody test by ELISA in plasma of immunized rats; details: Lewis rats, after immunization
Protocol: as §1, §2
The production of Globo H-specific antibodies in the plasma from the immunized rats was determined by ELISA assay. […] There was no response of Globo H-specific IgG and IgM antibody in rats treated with PBS only.

[3] = test system: Globo H-specific IgM antibody; assay: Immunization in mice with different Globo H:KLH ratios and antibody test by ELISA; details: Balb/c mice, s.c. day 0, 7, 14, 21, with saponin adjuvant, sera, compared with PBS control or between weight ratios
Protocol: Different samples of the glycoconjugates (Globo H-KLH) were stored at 4° C., and mixed with a saponin adjuvant under a laminar flow hood. The resultant vaccine compositions were placed on ice and transported to animal facility for subsequent immunization.
Balb/c mice of approximately eight weeks old were given Globo H-KLH glycoconjugate with different carbohydrate-to-protein (Globo H: KLH) ratios once every week for four weeks (Day 0, 7, 14, and 21) via subcutaneous injection. Blood samples were collected through retro-orbital or facial vein without anticoagulant pre-immune or Day 0, and three days after each vaccination (Day 10, 17 and 24). Samples were then centrifuged to separate sera and red cells. Sera were collected and stored at −20° C., which were later analyzed by ELISA. Mann-Whitney t-test was used for statistical analysis.

Q: “Fucα(1→2) Galβ(1→3) GalNAcβ(1→3) Galα(1→4) Galβ(1→4) Gluβ(1-O-ethylhydrazyl-1-carbonyl-cyclohexyl-4-(methyl-N-maleimido)-3-(thiobutyl-imidyl)-Keyhole Limpet Hemocyanin (KLH) [OBI-822]” was tested. Which “day at which CD3T, CD4T and CD8T cells appeared” value [1] did it give?
A: The value was 24 days.

Q: And the “day at which the B cell population first appeared” value [1]?
A: The value was 3 days.

Q: What about the “expansion of B cells and T cells compared to the PBS control group” value ([1]; flow cytometry) of the same substance?
A: The value was “significantly expanded”.

Q: And the “time at which titers of Globo H-specific IgG began to rise” value [2]?
A: The value was 10 days.

Q: And the “time at which titers of Globo H-specific IgG peaked” value [2]?
A: The value was 17 days.

Q: What about the “Globo H-specific IgM antibody responses” value [3] of the same substance?
A: The value was “significantly induce”.
